Source: ChEMBL document CHEMBL3885861, “Open TG-GATES”

Organism: Rattus norvegicus
Experiment: Open TG-GATES - Regimen: Single
Format: toxicity, organism-based, Sprague-Dawley
Parameters: regimen Single, gender Male, age 6 weeks
Details: in vivo, po, 30 mg/kg, route gavage, dose level Low; for APTT / Bas / Eos / Fbg / Hb / Ht / Lym / MCH / MCHC / MCV / Mono / Neu / PT / Plat / RBC / Ret / WBC: tissue Blood; for KIDNEY_L / KIDNEY_R / KIDNEY_TOTAL: tissue Kidney; for LIVER: tissue Liver; for A/G / ALP / ALT / AST / BUN / CRE / Ca / Cl / DBIL / GLC / IP / K / LDH / Na / PL / RALB / TBIL / TC / TG / TP / gamma-GTP: tissue Plasma

## ClC(Cl)(Cl)Cl [CARBON TETRACHLORIDE]
3 h
  TERMINAL_BW: 206.6 g
  APTT: 16.5 s
  Bas: 0%
  Eos: 0.8%
  Fbg: 259.6 mg/dL
  Hb: 13 g/dL
  Ht: 37.5%
  Lym: 76.6%
  MCH: 21.2 pg
  MCHC: 34.6%
  MCV: 61.4 fL
  Mono: 3.4%
  Neu: 19%
  PT: 12.3 s
  Plat: 127.9 x10_4/uL
  RBC: 610.8 x10_4/ul
  Ret: 8.6%
  WBC: 95.4 x10_2/uL
  KIDNEY_L: 0.9 g
  KIDNEY_R: 0.9 g
  KIDNEY_TOTAL: 1.9 g
  LIVER: 9.7 g
  A/G: 1.6
  ALP: 1090.2 IU/L
  ALT: 39.6 IU/L
  AST: 67.4 IU/L
  BUN: 11.8 mg/dL
  CRE: 0.4 mg/dL
  Ca: 10.9 mg/dL
  Cl: 104 meq/L
  DBIL: 0.1 mg/dL
  GLC: 192.6 mg/dL
  IP: 9.8 mg/dL
  K: 3.8 meq/L
  LDH: 198.8 IU/L
  Na: 140.2 meq/L
  PL: 169.2 mg/dL
  RALB: 3.4 g/dL
  TBIL: 0.2 mg/dL
  TC: 86 mg/dL
  TG: 81.2 mg/dL
  TP: 5.6 g/dL
  gamma-GTP: 1.4 IU/L
6 h
  TERMINAL_BW: 205.6 g
  APTT: 17.9 s
  Bas: 0%
  Eos: 1%
  Fbg: 242 mg/dL
  Hb: 13.1 g/dL
  Ht: 37.4%
  Lym: 72.8%
  MCH: 22 pg
  MCHC: 34.9%
  MCV: 63.1 fL
  Mono: 2.6%
  Neu: 22.8%
  PT: 12.7 s
  Plat: 134.6 x10_4/uL
  RBC: 593.6 x10_4/ul
  Ret: 8.6%
  WBC: 78.1 x10_2/uL
  KIDNEY_L: 0.9 g
  KIDNEY_R: 0.9 g
  KIDNEY_TOTAL: 1.8 g
  LIVER: 9.4 g
  A/G: 1.7
  ALP: 1051 IU/L
  ALT: 29.4 IU/L
  AST: 63.8 IU/L
  BUN: 10.2 mg/dL
  CRE: 0.4 mg/dL
  Ca: 10.6 mg/dL
  Cl: 104.4 meq/L
  DBIL: 0.1 mg/dL
  GLC: 195 mg/dL
  IP: 9.4 mg/dL
  K: 4.1 meq/L
  LDH: 221.2 IU/L
  Na: 139.6 meq/L
  PL: 159 mg/dL
  RALB: 3.5 g/dL
  TBIL: 0.2 mg/dL
  TC: 79 mg/dL
  TG: 91.2 mg/dL
  TP: 5.6 g/dL
  gamma-GTP: 1 IU/L
9 h
  TERMINAL_BW: 201.5 g
  APTT: 17.2 s
  Bas: 0%
  Eos: 0.8%
  Fbg: 229.4 mg/dL
  Hb: 12.7 g/dL
  Ht: 36.5%
  Lym: 74%
  MCH: 21.4 pg
  MCHC: 34.8%
  MCV: 61.6 fL
  Mono: 2.2%
  Neu: 22.6%
  PT: 12.5 s
  Plat: 126.6 x10_4/uL
  RBC: 593.2 x10_4/ul
  Ret: 9.1%
  WBC: 76.5 x10_2/uL
  KIDNEY_L: 0.9 g
  KIDNEY_R: 0.9 g
  KIDNEY_TOTAL: 1.8 g
  LIVER: 8.6 g
  A/G: 1.6
  ALP: 1042.2 IU/L
  ALT: 29.8 IU/L
  AST: 58 IU/L
  BUN: 10 mg/dL
  CRE: 0.4 mg/dL
  Ca: 10.4 mg/dL
  Cl: 103.8 meq/L
  DBIL: 0.09 mg/dL
  GLC: 196.8 mg/dL
  IP: 10.6 mg/dL
  K: 3.6 meq/L
  LDH: 174 IU/L
  Na: 140.2 meq/L
  PL: 150.8 mg/dL
  RALB: 3.3 g/dL
  TBIL: 0.2 mg/dL
  TC: 75.8 mg/dL
  TG: 57.2 mg/dL
  TP: 5.4 g/dL
  gamma-GTP: 0.8 IU/L
24 h
  TERMINAL_BW: 211.3 g
  APTT: 19.1 s
  Bas: 0%
  Eos: 0.8%
  Fbg: 229.6 mg/dL
  Hb: 13.6 g/dL
  Ht: 38.8%
  Lym: 84.4%
  MCH: 22.4 pg
  MCHC: 35%
  MCV: 64 fL
  Mono: 2.6%
  Neu: 11.6%
  PT: 12.1 s
  Plat: 132.2 x10_4/uL
  RBC: 606.4 x10_4/ul
  Ret: 8%
  WBC: 101.3 x10_2/uL
  KIDNEY_L: 1 g
  KIDNEY_R: 1 g
  KIDNEY_TOTAL: 2 g
  LIVER: 10.4 g
  A/G: 1.6
  ALP: 1115.2 IU/L
  ALT: 42.4 IU/L
  AST: 69.6 IU/L
  BUN: 14.8 mg/dL
  CRE: 0.4 mg/dL
  Ca: 10.7 mg/dL
  Cl: 103.8 meq/L
  DBIL: 0.07 mg/dL
  GLC: 202 mg/dL
  IP: 7.7 mg/dL
  K: 3.8 meq/L
  LDH: 188.8 IU/L
  Na: 140.6 meq/L
  PL: 155.2 mg/dL
  RALB: 3.5 g/dL
  TBIL: 0.1 mg/dL
  TC: 81.2 mg/dL
  TG: 61.8 mg/dL
  TP: 5.7 g/dL
  gamma-GTP: 1.4 IU/L
